“And” between values parts separate entries of the source, which are not always exact repeats. Equal entries are not always repeated.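 In this assay, cells in 96-well plates receive the compound at five concentrations for 48 hours. Endpoints are linearly interpolated between the surrounding concentrations. GI50 marks 50% less growth. TGI denotes the concentration required for complete inhibition of growth.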 Where a SMILES comes first, the peptide text is derived from it.
Test system: MDA-MB-468 breast
Experiment: DTP human tumour cell line panel, 48 h

Structure (SMILES) | GI50 | TGI
Fc1ccc(-c2ncn(C3CCNCC3)c2-c2ccnc(Oc3cccc(C(F)(F)F)c3)n2)cc1 | 1570 nM | 5310 nM
O=S(=O)(Nc1cc(F)cc(F)c1)c1ccc(-c2cnc(C3CC3)o2)cc1 | 1370 nM | 17900 nM
CCCCCCCCn1ccc2cc(NC(=O)Cn3cc(CN4CCN(CC)CC4)nn3)ccc21 | 1530 nM | 3040 nM
COC(=O)[C@]12CC[C@@H](C)[C@H](C)[C@@H]1C1=CC[C@@H]3[C@@]4(C)C[C@@H](OC(C)=O)[C@H](O)[C@@](C)(CO)[C@@H]4[C@H](O)C[C@@]3(C)[C@]1(C)CC2 | 8550 nM | 22800 nM
CC(=O)/C(=C\c1c(-c2ccccc2)[nH]c2ccccc12)S(C)(=O)=O | 1790 nM | 8100 nM
O=Cc1cn(Cc2ccccc2)c2ccccc12 | 174 nM | 469 nM
O=S(=O)(Nc1ccc2ccccc2c1)N1CCCCC1 | 2810 nM | 10300 nM
COc1cc2nccc(Oc3ccc(NC(=O)C4(C(=O)Nc5ccc(F)cc5)CC4)cc3)c2cc1OC(=O)c1ccc(N)cc1 | 3990 nM | > 100000 nM
C#CCNCCCN1C(=O)c2ccc3c4c(ccc(c24)C1=O)C(=O)N(CCCNCC#C)C3=O | 129 nM | 308 nM
Cc1cccc(-n2cnc3cc(C(=O)N4CCCCC4)ccc32)c1 | 18600 nM | > 100000 nM
C#CC(F)(F)[C@]1(O)CC[C@H]2[C@@H]3CCC4=CC(=O)CCC4=C3[C@@H](c3ccc(C4CC4)cc3)C[C@@]21C | 121 nM and 265 nM | 438 nM and 1520 nM
COc1ccc(/C=C(/C(=O)N2CCCCC2)c2cc(OC)c(OC)c(OC)c2)cc1 | 498 nM | > 100000 nM
COc1cc(-c2cc(-c3nc4ccc(F)cc4[nH]3)[nH]n2)cc(OC)c1OC | 1560 nM | 9670 nM
COC(=O)N[C@H]1C=C[C@@H]2/C=C(C)/C=C/[C@@H](C)[C@H]([C@H](C)[C@H](O)[C@@H](C)NC(C)=O)OC(=O)/C=C/C=C(C)\C=C\[C@]2(C)C1 | 4.32 nM and 4.53 nM | > 45300 nM
NS(=O)(=O)c1ccc(N=Nc2c(O)[nH]c3ccc(Cl)cc23)cc1 | > 20100 nM | > 25000 nM
COc1ccc(C(O)c2cc3c(N)c(C(=O)Nc4ccccc4)sc3nc2C)cc1 (stereo not given) | 29.8 nM | > 100000 nM
COc1ccc(/C=C/C(=O)Nc2cc(/C=C\c3cc(OC)c(OC)c(OC)c3)cc(OC)c2OC)cc1OC | 1740 nM | 7520 nM
Cn1cc(-c2nc(N)nnc2-c2c[nH]c3ccccc23)c2cc(Br)ccc21 | 342 nM | 2040 nM

Structure (SMILES) | GI50 | TGI
CCNCCNc1cc(-c2ccc(Cl)c(Cl)c2)c(C#N)c2nc3ccccc3n12 | 1140 nM | 2520 nM
C=C(C)[C@@H]1CC[C@]2(C(N)=O)CC[C@]3(C)[C@H](CC[C@@H]4[C@@]5(C)C/C(=C/c6cccnc6)C(=O)C(C)(C)[C@@H]5CC[C@]43C)[C@@H]12 | 3500 nM | 40500 nM
CCC(C)C1NC(=O)C(CCCCN)NC(=O)C(CCCCN)NC(=O)C(CC(C)C)NC(=O)C(CCCCN)NC(=O)C(C(C)CC)NC(=O)C(C(C)C)NC(=O)C(C(C)CC)NC(=O)C(CCCCN)NC(=O)C(CCCCN)NC(=O)C(C)NC(=O)C(CCCCN)NC(=O)C(CC(C)C)NC1=O (stereo not given) (cyclo(AKKIVIKLKKILK); configuration not given here) | 564 nM | 2300 nM
O=C1NC(=NCc2c(Cl)cccc2Cl)S/C1=C\c1ccc2ncccc2c1 | 6240 nM | > 25000 nM
CCCCCCC(O)(c1ccc(F)cc1)C(CN1CCOCC1)c1ccccc1 (stereo not given) | 4930 nM | 18600 nM
CCNC(=O)N1CCc2c(Cl)c3c(c(OC)c2[C@@H]1[C@H]1OCc2c1ccc(OC)c2OC)OCCO3 | 2650 nM | > 100000 nM
CCOc1ccccc1C(=O)/C=C/c1cc2ccccc2[nH]c1=O | 162 nM | 1630 nM
Cn1cc(C2=C(n3ccc4ccccc43)C(=O)NC2=O)c2ccccc21 | > 25000 nM | > 25000 nM
O=C1C=CC2(NN=C(c3ccccc3)N2c2ccccc2)c2cccc(O)c21 (stereo not given) | 1920 nM | 9090 nM
COc1ccc(CCc2nc3cc(-c4c(C)noc4C)ccc3n2CCN2CCOCC2)cc1 | 8780 nM | > 100000 nM
COc1ccc2nc3c(n2c1)C(=O)C(=O)c1ccccc1-3 | 2180 nM | 5630 nM
Cn1cc(-c2csc(-c3c[nH]c4ccccc34)n2)c2cccnc21 | 915 nM | 4180 nM
CC(C)(C(=O)NCC(F)(F)C(F)(F)F)C(=O)N[C@@H]1C(=O)Nc2ccccc2-c2ccccc21 | 12700 nM | 73000 nM
CCCCCN1C(=O)/C(=c2\sc3n(c2=O)C2C(NN=3)N(CC)C(=O)N2CC)c2ccccc21 (stereo not given) | 369 nM | 2000 nM
CCCCCCCCCCCCCCCC(=O)Nc1ccn([C@@H]2O[C@H](CO)[C@@H](O)[C@@H]2C#N)c(=O)n1 | 48700 nM | > 100000 nM
O=C(Nc1ccccc1C(=O)N/N=C(\c1ccccc1)c1ccccn1)c1ccccc1 | 338 nM | 2380 nM
C#CC#CC#CC#CC#CC#CC#CC#CC[C@@H]1OC[C@H](COC(=O)O[C@@H](C(=O)O[C@H]2C[C@@]3(O)[C@@H](OC(=O)c4ccccc4)[C@@H]4[C@]5(OC(C)=O)CO[C@@H]5C[C@H](O)[C@@]4(C)C(=O)[C@H](OC(C)=O)C(=C2C)C3(C)C)[C@@H](NC(=O)c2ccccc2)c2ccccc2)O1 | 439 nM | 1590 nM

Source: PubChem BioAssay (NCI)
